These results are taken from patent US20040265917A1, “Methods of measuring the ability of a test compound to inactivate a biological target in cells of a subject” (priority 2003, published 2004).

The target of assay [1] is T1, MetAP-2 (Rattus norvegicus, UniProt P38062).
T1 construct: percentage of free MetAP-2 remaining in white blood cells, liver, spleen, lymph nodes and thymus; from tissue; host or cells: white blood cells, liver, spleen, lymph nodes, thymus of Sprague-Dawley rats
The experiment in a line: Free MetAP-2 ELISA (streptavidin plates, Compound 1 capture) in white blood cells and tissues of rats after a single dose, Phase IIa/IIb. The format is in vivo, Sprague-Dawley rats. On the procedure:
Determination of Free MetAP-2 in Rat White Blood Cell Lysates and tissues Following Administration of Compound 2
Preparation of WBC Lysates
Spleen Homogenization and Lysis Procedure
Liver, Thymus and Lymph Nodes Homogenization and Lysis Procedure
Treat 20 μL of each lysate dividing into polypropylene 96-well plates: +Compound 2 Samples (Background Controls): Dilute 40 mM Compound 2 stock 1:4000 for a 10 μM working stock and add 2 μL to background samples for a final concentration of 1 μM Compound 2.
Dilute 40 mM Compound 1 stock 1:4000 for a 10 μM working stock and add 2 μL of diluted to the samples and 5 μL to the rMetAP2 standards for a final concentration of 1 μM; cover, tap gently to mix, and incubate for 1 hr at room temperature without shaking.
Remove the streptavidin plates from 4° C. at least 30 min prior to use Dilute each of the samples 1:10 (180 μL into the 20 μL sample) with PBST and mix well.
Transfer 20 μL and 40 μL aliquots of the diluted samples to streptavidin plates, adding to 30 μL and 10 μL of PBST (for total volumes of 50 μL each), and mix well: duplicate aliquots of each volume for the signal samples (signal sample=−Compound 2) and single aliquots of each volume for the background samples (background samples=+Compound 2).
Cover and incubate the plates at room temperature on plate shaker for 1 hr at medium speed.
Wash 3 times manually with 50 μL of 2% (w/v) SDS. Flick plate briskly over sink to remove 2% SDS. Tap on napkin to blot.
Add 50 μL of 1:500 anti-MetAP2 antibody in PBST using 12 channel pipette, so triplicates receive antibody at same time, cover and incubate at room temp. on plate shaker for 1 hr at medium speed. One plate requires 5 mL of PBST plus 10 μL of anti-MetAP2 antibody.
Add 50 μL of 1:5000 goat anti-rabbit-HRP antibody in PBST using the 12 channel pipette, cover and incubate at room temperature on plate shaker for 1 hr at medium speed. One plate requires 5 mL of PBST plus 1 μL anti-rabbit-HRP antibody. Aliquot 50 μL per well.
10 minutes after adding the TMB substrate, add 100 μL of 1 N H2SO4 and then measure the absorbance at 450 nm.
The purpose of this study was to determine the percentage of free MetAP-2 remaining in white blood cells, liver, spleen, lymph nodes and thymus as a pharmacodynamic marker of Compound 2 activity after a single dose was administered to Sprague-Dawley rats.
A repeat examination of MetAP-2 inhibition in WBCs was conducted with various dose levels of Compound 2, administered either IV or PO in female SD rats. In addition, thymus and liver were collected and snap frozen in liquid nitrogen for MetAP-2 analysis.
At 4, 24, 48, 72, 96, 120 hours post dose whole blood (≧3.0 mL) was taken from anesthetized animals (isoflurane inhalation to effect) via cardiac puncture, using a 20 gauge needle. Blood was immediately placed into EDTA tubes and stored at 4-8° C.
After blood collection animals were sacrificed by CO2 inhalation. The entire thymus and left lateral lobe of the liver were minced, placed into separate tissue cassettes, and snap frozen in liquid nitrogen for future MetAP-2 analysis.
To characterize MetAP-2 turnover in tissues after a single oral administration of Compound 2 and to determine if any sex difference existed.
Blood and tissue samples were collected from SD rats after receiving a single dose of Compound 2. Inhibition of MetAP-2 by Compound 2 was monitored using an ELISA designed to measure the amount of free MetAP-2 in a sample. Cells were lysed and then treated with Compound 1. Compound 1 covalently binds to the active site of MetAP-2 molecules that have not already been derivatized by Compound 2. The resulting biotinylated MetAP-2 is captured onto immobilized streptavidin, then detected with an anti-MetAP-2 antibody and an enzyme-linked secondary antibody. Phase I was used as a pilot study to determine if MetAP-2 inhibition could be monitored in female SD rat white blood cell (WBC) lysates after a single 30 mg/kg dose of Compound 2 administered IV, IP, PO or SC. […]
In general terms: In an ELISA, binding on a coated surface is turned into a signal by an enzyme label.

Assay [2] deals with T2, MetAP-2 (Mus musculus, UniProt O08663).
T2 construct: from tissue; host or cells: B16F10 murine melanoma tumor and liver of male C57BL/6 mice
T2 sequence (O08663 whole entry): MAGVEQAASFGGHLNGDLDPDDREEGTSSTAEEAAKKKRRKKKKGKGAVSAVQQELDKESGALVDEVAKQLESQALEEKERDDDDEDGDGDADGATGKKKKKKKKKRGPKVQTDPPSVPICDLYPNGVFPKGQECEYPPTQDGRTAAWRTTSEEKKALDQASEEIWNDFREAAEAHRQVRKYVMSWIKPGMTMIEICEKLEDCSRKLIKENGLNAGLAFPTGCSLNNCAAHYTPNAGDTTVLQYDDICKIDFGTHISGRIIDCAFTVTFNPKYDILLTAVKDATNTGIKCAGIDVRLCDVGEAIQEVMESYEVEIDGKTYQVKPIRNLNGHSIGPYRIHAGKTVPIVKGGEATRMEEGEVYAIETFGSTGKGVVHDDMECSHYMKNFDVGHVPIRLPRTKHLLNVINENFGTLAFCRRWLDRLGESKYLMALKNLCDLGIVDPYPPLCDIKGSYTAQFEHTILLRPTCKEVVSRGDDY
The experiment in a line: Free MetAP-2 gel shift assay with fluorescent fumagillin analogue (Compound 3) in tumor and liver tissue of mice bearing B16F10 murine melanoma tumors. The class given is in vivo, C57BL/6 mice. The note with it: 3 or 30 mg/kg PO every other day; samples 24 hours after last dose. On the procedure:
(§1) Male C57BL/6 mice were divided into six groups of 10 mice each. Each mouse received an implant of 10^6B16F10 murine melanoma cells in 100 μL of PBS above the leg. At day seven following implantation, one group of mice (Group 6) began a regimen of 100 mg/kg Compound 2 every other day, administered oral gavage (PO). At day 13 post implantation, the remaining groups began receiving treatment as follows: Group 1: […] vehicle (11 % hydroxypropyl cyclodextrin) every other day; Group 2: 5-fluorouracil 50 mg/kg in 1% propylene glycol/D5W, PO every other day; Group 3: Compound 2, 3 mg/kg PO every other day; Group 4: Compound 2, 30 mg/kg PO, every other day; Group 5: Compound 2, 100 mg/kg PO, every other day. In each group, the last dose was administered on day 19 post implantation, and blood, spleen, tumor, thymus and liver samples were collected from the mice 24 hours following the last dose.
(§2) The tissue samples were prepared for analysis following the protocols set forth in Example 2 and analyzed for free MetAP-2 using the ELISA protocol of Example 2. The prepared tissue samples were also analyzed for free MetAP-2 activity using the following protocol.
1. Dilute samples in 1.5 mL eppendorf tubes to their desired concentration in lysis buffer in 10 uL volume. See calculations.
2. To each tube, add 1 uL of 10 uM Compound 3stock that has been diluted in lysis buffer.
3. Incubate on ice for 1.0 hours. […]
For orientation: A gel shift assay detects complexes by their altered migration in electrophoresis.

For assay [3], the target named is T1, MetAP-2. The experiment in a line: Phase I pilot free MetAP-2 ELISA (streptavidin beads) in white blood cell lysates after a single dose. The class given is in vivo, female Sprague-Dawley rats. The note with it: single 30 mg/kg dose IV, IP, PO or SC; female SD rats; all routes of administration. On the procedure:
MetAP-2 inhibition in white blood cells (WBC) was examined after a single dose (30 mg/kg) of Compound 2 , administered either by intravenous (IV), intraperitoneal (IP), oral gavage (PO) or subcutaneous (SC) routes, to female Sprague-Dawley (SD) rats
A ≧1.0 mL whole blood sample was taken from 3 animals/group/time point (4, 24, 48, 72, 96, and 120 hours post dose) for MetAP-2 analysis. Each animal was bled only once by conscious jugular venipuncture. Blood was immediately placed into EDTA tubes and stored at 4-8° C. Two blood smears from each sample were made for possible differential count analysis.
Blood and tissue samples were collected from SD rats after receiving a single dose of Compound 2. Inhibition of MetAP-2 by Compound 2 was monitored using an ELISA designed to measure the amount of free MetAP-2 in a sample. Cells were lysed and then treated with Compound 1. […] The resulting biotinylated MetAP-2 is captured onto immobilized streptavidin, then detected with an anti-MetAP-2 antibody and an enzyme-linked secondary antibody. Phase I was used as a pilot study to determine if MetAP-2 inhibition could be monitored in female SD rat white blood cell (WBC) lysates after a single 30 mg/kg dose of Compound 2 administered IV, IP, PO or SC. […] Following this analysis it was determined that signal from sample replicates were highly variable and the assay required revision. […]

The target in assay [4] is T2, MetAP-2. The experiment in a line: Free MetAP-2 ELISA in tumor and liver tissue of mice bearing B16F10 murine melanoma tumors. The class given is in vivo, C57BL/6 mice. The note with it: 3 or 30 mg/kg PO every other day; samples 24 hours after last dose. As to the method:
as §1, §2
The results of this study are set forth in FIG. 5, which provides a comparison of the results obtained in tumor tissue and liver tissue using the ELISA protocol and those obtained using the gel-shift analysis.

The mark [5] stands for this setting: Phase IIb, 3 mg/kg PO single dose, 48 hr.

T1 sequence (P38062 whole entry): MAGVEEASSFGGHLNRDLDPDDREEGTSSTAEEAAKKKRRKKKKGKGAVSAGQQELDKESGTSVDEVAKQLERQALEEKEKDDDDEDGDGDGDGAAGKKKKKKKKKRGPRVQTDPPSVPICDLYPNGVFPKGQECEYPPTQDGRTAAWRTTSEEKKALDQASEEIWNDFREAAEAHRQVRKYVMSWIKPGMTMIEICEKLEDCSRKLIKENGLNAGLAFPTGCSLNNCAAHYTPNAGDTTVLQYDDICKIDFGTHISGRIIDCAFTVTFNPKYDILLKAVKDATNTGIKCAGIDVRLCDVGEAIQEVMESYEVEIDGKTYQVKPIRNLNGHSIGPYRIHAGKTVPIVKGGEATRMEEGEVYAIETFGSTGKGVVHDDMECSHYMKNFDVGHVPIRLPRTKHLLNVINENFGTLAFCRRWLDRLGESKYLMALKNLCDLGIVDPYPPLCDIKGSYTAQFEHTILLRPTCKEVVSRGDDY

Take `CO[C@@H]1[C@H](OC(=O)N[C@@H](C(N)=O)C(C)C)CC[C@]2(CO2)[C@H]1[C@@]1(C)O[C@@H]1CC=C(C)C` [Compound 2, (1-Carbamoyl-2-methyl-propyl)-carbamic acid-(3R, 4S, 5S, 6R )-5-methoxy-4-[(2R, 3R)-2-methyl-3-(3-methyl-but-2-enyl)-oxiranyl]-1-oxa-spiro[2.5]oct-6-yl ester]: the “duration of inhibition of MetAP-2 in WBC” value at MetAP-2 [1] (Phase IIa, female SD rats, 30 mg/kg PO versus 0.3 and 3 mg/kg PO, single dose) was “more prolonged inhibition”. Also, on MetAP-2 [1] (Phase IIb, male and female SD rats, 0.3 and 3 mg/kg PO, single dose), the “sex differences in MetAP-2 inhibition” value is on record as “no consistent sex differences”. Moreover, the “effect on free MetAP-2 levels in tissues other than WBC and liver (spleen, thymus, lymph nodes)” value at MetAP-2 [1] (Phase IIb, 0.3 mg/kg PO, single dose) is listed as “no significant effect”. Also, at MetAP-2 [1] (setting [5]), the “free MetAP-2 level in WBC, average (±SEM)” value was 13%±4%; the “free MetAP-2 level in liver, average (±SEM)” value was 13%±5%; the “free MetAP-2 level in lymph nodes, average (±SEM)” value is reported as 63%±16%; the “free MetAP-2 level in spleen, average (±SEM)” value was 41%±5%. In addition, the “free MetAP-2 level in thymus tissue” value at MetAP-2 [1] (setting [5]) is on record as “recovered completely”. The “recovery of free MetAP-2 in WBC, 3 mg/kg versus 0.3 mg/kg group” value on MetAP-2 [1] (Phase IIb, single PO dose, by 72 hr) is given as “recovered to similar free MetAP-2 levels”. Besides, the “rank order of responsiveness of organs (MetAP-2 inhibition relative to WBC)” value at MetAP-2 [1] (Phase IIb, single PO dose, tissues plotted relative to WBC) is reported as “liver (most inhibited)>spleen≅lymph nodes>thymus”. In addition, the “average free MetAP-2 remaining in tissues when no measurable free MetAP-2 in WBC” value on MetAP-2 [1] (groups with no measurable free MetAP-2 in the WBC) is at most 3%. In addition, the inhibition at 3 mg/kg on MetAP-2 [1] (rat, Phase IIb, 3 mg/kg PO single dose, four hours after dosing, WBC, liver, spleen, thymus, lymph nodes, read-out: average inhibition of MetAP-2 in all compartments) was at least 95%. Also, at MetAP-2 [2], the “free MetAP-2 levels in liver tissue relative to controls (gel shift)” value is given as “dose-dependent decrease” and the “free MetAP-2 levels in tumor tissue relative to controls (gel shift)” value is “dose-dependent decrease”. Also, the “free MetAP-2 signal in WBC lysates” value on MetAP-2 [3] is “reduction followed by a recovery”. In addition, on MetAP-2 [4], the “free MetAP-2 levels in liver tissue relative to controls (ELISA)” value was “dose-dependent decrease” and the “free MetAP-2 levels in tumor tissue relative to controls (ELISA)” value is “dose-dependent decrease”.

As a reminder, the inhibition is the percentage by which the read-out fell short of the control.
